This note sets out measurements from US20250353858A1, “CONDENSED HETEROCYCLIC COMPOUNDS AS INHIBITOR OF DIACYLGLYCEROL KINASES” (BEONE MEDICINES I GMBH, priority 2023, published 2025).

pIC50: −log10 of the molar value.

The target in one experiment is DGKζ (Homo sapiens (Human), UniProt Q13574). Description: Biochemical DGK IC50 assay (ADP-Glo, lipid micelle substrate), DGKζ. The following applies: full length DGKζ 0.5 nM, ATP 140 μM, DAG 80 μM. The procedure:
(§1) Enzymatic reactions of DGKζ, DGKα and DGKδ were performed using ADP-Glo assay with lipid micelle substrate. […] Full length DGKα (D21-10BG, SignalChem) and full length DGKδ (D23-10G, SignalChem) were purchased. Lipid micelle was prepared by dissolving DAG (Sigma, 317505-10MG) and PS (Sigma, P7769-100MG) with chloroform which was furtherly removed by rotary evaporation. The resulted product was resuspended in buffer containing 25 mM HEPES pH 7.0, 0.5 mM EDTA and 160 mM Octyl β-D glucopyranoside by vigorous mixing and ultrasonic (IID, Scientz).
(§2) The inhibition activities testing for the compound disclosed herein were carried out at room temperature in assay buffer containing 50 mM HEPES, 10 mM MgCl2, 0.01% BSA, 0.1 mM Na3VO4, 0.005% Tween-20 and 0.01 mM CaCl2. Compounds in DMSO were dispensed into wells of a black 384 well plate (Corning 4514) using D300e digital dispenser (Tecan). […] 3 μL 2× enzyme solution was added to wells. […] After 1 hour reaction, 5 μL ADP-Glo reagent (Promga V9101) was added and incubated for 40 minutes. 10 μL Kinase Detection reagent was added and incubated for 30 minutes. Luminescence was measured on a microplate reader (PHERAstar FSX, BMG labtech). The IC50s are calculated based on inhibition of enzyme activity in the presence of increasing concentrations of compounds.
Human His-TEV-DGK-zeta-pFastBac1 and human baculovirus samples was generated using the Bac-to-Bac baculovirus expression system (Invitrogen) according to the manufacturer's protocol. The DNA used for expression of DGK-zeta, have SEQ ID Nos: 1. Baculovirus amplification was achieved using infected SF9 cells at 1:2000 virus/cells ratios, and grown for 96 hours at 27° C. post-transfected.
Full length human DGKζ produced as described above, was purified from Sf9 baculovirus-infected insect cell paste. The cells were lysed using sonication method, and the lysates were clarified by centrifugation.

For the next experiment, the target named is DGKα (Homo sapiens (Human), UniProt P23743). Description: Biochemical DGK IC50 assay (ADP-Glo, lipid micelle substrate), DGKα. Further: full length DGKα 7.5 nM. The settings on record: full length DGKα […], ATP 140 μM, DAG 80 μM. On the procedure:
as §1, §2
Background: In ADP-Glo the light output rises with the ADP produced.

Sequence of DGKα (P23743 whole entry): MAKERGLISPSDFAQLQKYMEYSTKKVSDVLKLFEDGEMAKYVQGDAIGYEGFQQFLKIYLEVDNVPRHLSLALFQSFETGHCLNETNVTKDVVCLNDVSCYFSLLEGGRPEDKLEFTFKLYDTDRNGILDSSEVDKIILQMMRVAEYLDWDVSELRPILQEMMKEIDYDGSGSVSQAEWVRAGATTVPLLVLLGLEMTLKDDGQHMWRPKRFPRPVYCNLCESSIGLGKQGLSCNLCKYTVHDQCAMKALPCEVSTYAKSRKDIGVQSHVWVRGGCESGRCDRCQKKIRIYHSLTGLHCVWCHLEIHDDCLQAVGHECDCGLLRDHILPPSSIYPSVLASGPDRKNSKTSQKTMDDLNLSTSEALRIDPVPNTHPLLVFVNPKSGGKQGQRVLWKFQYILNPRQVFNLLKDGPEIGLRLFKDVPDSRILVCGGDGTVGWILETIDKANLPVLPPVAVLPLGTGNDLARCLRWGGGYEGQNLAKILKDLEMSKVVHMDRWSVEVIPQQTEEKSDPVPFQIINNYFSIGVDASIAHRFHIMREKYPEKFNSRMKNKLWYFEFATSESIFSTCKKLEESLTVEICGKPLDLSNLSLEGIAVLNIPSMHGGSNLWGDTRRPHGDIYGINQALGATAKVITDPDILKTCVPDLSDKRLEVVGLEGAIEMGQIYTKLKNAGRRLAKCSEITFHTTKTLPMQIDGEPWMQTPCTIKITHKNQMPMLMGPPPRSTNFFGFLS
Sequence of DGKζ (Q13574 other isoform, or with tags, fused parts or gaps): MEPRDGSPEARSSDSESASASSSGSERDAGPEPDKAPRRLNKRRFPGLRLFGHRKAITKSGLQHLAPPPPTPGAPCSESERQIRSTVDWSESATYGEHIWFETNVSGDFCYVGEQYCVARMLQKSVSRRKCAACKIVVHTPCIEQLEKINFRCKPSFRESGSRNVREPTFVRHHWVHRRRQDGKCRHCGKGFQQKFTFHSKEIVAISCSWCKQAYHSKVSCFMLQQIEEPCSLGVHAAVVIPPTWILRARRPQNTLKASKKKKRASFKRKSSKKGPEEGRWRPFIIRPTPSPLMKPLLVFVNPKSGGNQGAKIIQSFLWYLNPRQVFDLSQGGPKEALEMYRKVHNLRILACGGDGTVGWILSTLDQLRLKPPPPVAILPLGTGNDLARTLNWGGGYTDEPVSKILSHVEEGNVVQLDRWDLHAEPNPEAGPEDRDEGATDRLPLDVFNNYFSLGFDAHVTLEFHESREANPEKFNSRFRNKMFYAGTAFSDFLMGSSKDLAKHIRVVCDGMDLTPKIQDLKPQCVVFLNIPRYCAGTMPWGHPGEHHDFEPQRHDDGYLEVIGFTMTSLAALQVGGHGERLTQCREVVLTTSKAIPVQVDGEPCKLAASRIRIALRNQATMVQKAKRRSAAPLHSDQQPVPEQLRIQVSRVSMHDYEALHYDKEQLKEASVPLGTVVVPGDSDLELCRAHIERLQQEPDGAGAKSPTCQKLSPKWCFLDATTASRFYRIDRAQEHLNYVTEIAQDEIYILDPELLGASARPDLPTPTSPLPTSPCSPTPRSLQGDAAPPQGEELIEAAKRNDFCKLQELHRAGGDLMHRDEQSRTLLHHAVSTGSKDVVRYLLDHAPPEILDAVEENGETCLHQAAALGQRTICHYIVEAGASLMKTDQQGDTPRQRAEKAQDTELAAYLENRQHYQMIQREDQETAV

A word on the pIC50: it is the IC50 on a negative log10 scale, so that one unit is a factor of ten. The low end stands for a large IC50, the high end for a small IC50. For `CC(c1ccc2nccnc2c1)N1C[C@H](C)N(c2cc(=O)n(C)c3cc(CC#N)nn23)C[C@H]1C` (mixture of isomers) [Compound A2, 2-(7-((2S,5R)-2,5-dimethyl-4-(1-(quinoxalin-6-yl)ethyl)piperazin-1-yl)-4-methyl-5-oxo-4,5-dihydropyrazolo[1,5-a]pyrimidin-2-yl)acetonitrile], the figures for the pIC50 against DGKζ and against DGKα were 7.30 and 5.51, respectively.

`CC(c1ccc2nccnc2c1)N1C[C@H](C)N(c2cc(=O)n(C)c3cc(CC#N)nn23)C[C@H]1C` (single isomer, unassigned) [Compound A2a]: the pIC50 against DGKζ was 5.77; against DGKα, less than 5.00.

Turning to `CC(c1ccc2nccnc2c1)N1C[C@H](C)N(c2cc(=O)n(C)c3cc(CC#N)nn23)C[C@H]1C` (single isomer, unassigned) [Compound A2b], the pIC50 is 7.49 at DGKζ and 5.22 against DGKα.

As to `CC[C@@H]1CN(c2cc(=O)[nH]c3cc(CC#N)nn23)[C@@H](C)CN1C(C)c1ccc2nccnc2c1` (single isomer, unassigned) [Compound A4a], the figures for the pIC50 against DGKζ and against DGKα were 6.82 and 4.19, respectively.

Regarding `CC[C@@H]1CN(c2cc(=O)[nH]c3cc(CC#N)nn23)[C@@H](C)CN1C(C)c1ccc2nccnc2c1` (single isomer, unassigned) [Compound A4b], the pIC50 against DGKζ is 5.13; against DGKα, less than 5.00.

With `CC(c1ccc2c(c1)OC(C)(C)CO2)N1C[C@H](C)N(c2c(C#N)c(=O)n(C)c3cc(CC#N)nn23)C[C@H]1C` (single isomer, unassigned) [Compound A12a], the values for the pIC50 on DGKζ and at DGKα were 7.96 and 4.90, respectively.

For `CC(c1ccc2c(c1)OC(C)(C)CO2)N1C[C@H](C)N(c2c(C#N)c(=O)n(C)c3cc(CC#N)nn23)C[C@H]1C` (single isomer, unassigned) [Compound A12b], the pIC50 against DGKζ is 5.94; against DGKα, 4.98.

Consider `CC[C@@H]1CN(c2c(F)c(=O)n(C)c3cc(CC#N)nn23)[C@@H](C)CN1C(C)c1ccc(C2CC2)nc1` (single isomer, unassigned) [Compound A24a], for which the negative-log IC50 (pIC50) on DGKζ was 5.41; on DGKα it was 5.57.

On to `CC[C@@H]1CN(c2c(F)c(=O)n(C)c3cc(CC#N)nn23)[C@@H](C)CN1C(C)c1ccc(C2CC2)nc1` (single isomer, unassigned) [Compound A24b], for which the pIC50 against DGKζ is 5.58; on DGKα, 5.35.

As to `CC[C@@H]1CN(c2cc(=O)n(C)c3cc(CC#N)nn23)[C@@H](C)CN1C(C)c1ccc2ncsc2c1` (single isomer, unassigned) [Compound A28a], the values for the pIC50 on DGKζ and against DGKα were 7.68 and 6.63, respectively.

With `CC[C@@H]1CN(c2cc(=O)n(C)c3cc(CC#N)nn23)[C@@H](C)CN1C(C)c1ccc2ncsc2c1` (single isomer, unassigned) [Compound A28b], the negative-log IC50 (pIC50) was 5.65 at DGKζ and 5.83 against DGKα.

For the compound `CC[C@@H]1CN(c2cc(=O)n(C)c3cc(CC#N)nn23)[C@@H](C)CN1[C@@H](C)c1ccc2ncsc2n1` (single isomer, unassigned) [Compound A29a], the pIC50 is 7.38 on DGKζ and 6.67 on DGKα.

On to `CC[C@@H]1CN(c2cc(=O)n(C)c3cc(CC#N)nn23)[C@@H](C)CN1[C@H](C)c1ccc2ncsc2n1` (single isomer, unassigned) [Compound A29b], for which the pIC50 was 5.81 on DGKζ and 5.80 against DGKα.

For the compound `CC(c1ccc2nccnc2c1)N1CCC(c2cc(=O)n(C)c3cc(CC#N)nn23)C[C@H]1C` (single isomer, unassigned) [Compound A33a], the pIC50 on DGKζ and on DGKα was less than 5.00 each time.

On to `CC(c1ccc2nccnc2c1)N1CCC(c2cc(=O)n(C)c3cc(CC#N)nn23)C[C@@H]1C` (single isomer, unassigned) [Compound A34a], for which the pIC50 against DGKζ was 5.24; against DGKα, less than 3.82.

For `CC(c1ccc2nccnc2c1)N1CCC(c2cc(=O)n(C)c3cc(CC#N)nn23)C[C@@H]1C` (single isomer, unassigned) [Compound A34b], the pIC50 on DGKζ is less than 5.00; against DGKα it was less than 3.82.

On to `CC[C@H]1CN(C(C)c2ccc3nc(C)sc3n2)[C@H](CC)CN1c1cc(=O)n(C)c2cc(CC#N)nn12` (single isomer, unassigned) [Compound A35a], for which the pIC50 is 5.33 on DGKζ and 5.65 at DGKα.

As to `CC[C@H]1CN(C(C)c2ccc3nc(C)sc3n2)[C@H](CC)CN1c1cc(=O)n(C)c2cc(CC#N)nn12` (single isomer, unassigned) [Compound A35b], the negative-log IC50 (pIC50) against DGKζ was 7.51; against DGKα it was 7.14.

Turning to `CC[C@H]1CN(C(C)c2ccc3cc(C(F)F)sc3n2)[C@H](CC)CN1c1cc(=O)n(C)c2cc(CC#N)nn12` (single isomer, unassigned) [Compound A37a], the pIC50 on DGKζ was 5.80; against DGKα, 6.70.

On to `CC[C@H]1CN(C(C)c2ccc3cc(C(F)F)sc3n2)[C@H](CC)CN1c1cc(=O)n(C)c2cc(CC#N)nn12` (single isomer, unassigned) [Compound A37b], for which the pIC50 is 7.08 against DGKζ and 7.62 against DGKα.

`CC[C@H]1CN(C(C)c2ccc3nc(C)cn3n2)[C@H](CC)CN1c1cc(=O)n(C)c2cc(CC#N)nn12` (single isomer, unassigned) [Compound A38a]: the pIC50 was less than 5.00 against DGKζ and 5.41 at DGKα.

As for `CC[C@H]1CN(C(C)c2ccc3nc(C)cn3n2)[C@H](CC)CN1c1cc(=O)n(C)c2cc(CC#N)nn12` (single isomer, unassigned) [Compound A38b], the pIC50 is 6.33 against DGKζ and 6.69 against DGKα.

As to `CC[C@H]1CN(C(C)c2ccn3nccc3n2)[C@H](CC)CN1c1cc(=O)n(C)c2cc(CC#N)nn12` (single isomer, unassigned) [Compound A39a], the pIC50 against DGKζ is less than 5.00; on DGKα, 6.23.

Turning to `CC[C@H]1CN(C(C)c2ccn3nccc3n2)[C@H](CC)CN1c1cc(=O)n(C)c2cc(CC#N)nn12` (single isomer, unassigned) [Compound A39b], the pIC50 on DGKζ is 6.98; on DGKα, 7.28.

As for `CC[C@H]1CN(C(C)c2ccn3nc(C)cc3n2)[C@H](CC)CN1c1cc(=O)n(C)c2cc(CC#N)nn12` (single isomer, unassigned) [Compound A40a], the pIC50 on DGKζ is 5.24; against DGKα it was 5.81.

In the case of `CC[C@H]1CN(C(C)c2ccn3nc(C)cc3n2)[C@H](CC)CN1c1cc(=O)n(C)c2cc(CC#N)nn12` (single isomer, unassigned) [Compound A40b], the pIC50 was 7.28 at DGKζ and 7.21 against DGKα.

Take `CC[C@H]1CN(C(C)c2ccn3nc(F)cc3n2)[C@H](CC)CN1c1cc(=O)n(C)c2cc(CC#N)nn12` (single isomer, unassigned) [Compound A41a]: the pIC50 against DGKζ was 7.10; against DGKα, 7.60.

Take `CC[C@H]1CN(C(C)c2ccn3nc(F)cc3n2)[C@H](CC)CN1c1cc(=O)n(C)c2cc(CC#N)nn12` (single isomer, unassigned) [Compound A41b]: the results for the pIC50 against DGKζ and against DGKα were 5.34 and 5.80, respectively.

Regarding `CC[C@H]1CN(C(C)c2ccc3nc(C)cn3n2)[C@H](CC)CN1c1nc(=O)n(C)c2cc(CC#N)nn12` (single isomer, unassigned) [Compound A45a], the pIC50 against DGKζ is less than 5.00; at DGKα, 5.73.

As to `CC[C@H]1CN(C(C)c2ccc3nc(C)cn3n2)[C@H](CC)CN1c1nc(=O)n(C)c2cc(CC#N)nn12` (single isomer, unassigned) [Compound A45b], the results for the pIC50 on DGKζ and on DGKα were 6.94 and 7.18, respectively.

Turning to `CC[C@H]1CN(C(C)c2ccc3nc(C)c(F)n3n2)[C@H](CC)CN1c1nc(=O)n(C)c2cc(CC#N)nn12` (single isomer, unassigned) [Compound A48a], the results for the pIC50 against DGKζ and on DGKα were less than 5.00 and 5.27, respectively.

On to `CC[C@H]1CN(C(C)c2ccc3nc(C)c(F)n3n2)[C@H](CC)CN1c1nc(=O)n(C)c2cc(CC#N)nn12` (single isomer, unassigned) [Compound A48b], for which the pIC50 on DGKζ is 7.62; at DGKα, 7.20.

Regarding `CC[C@H]1CN(C(C)c2ccc3nc(C)sc3c2)[C@H](CC)CN1c1nc(=O)n(C)c2cc(CC#N)nn12` (single isomer, unassigned) [Compound A53a], the pIC50 on DGKζ was 7.70; at DGKα, 6.94.

Take `CC[C@H]1CN(C(C)c2ccc3nc(C)sc3c2)[C@H](CC)CN1c1nc(=O)n(C)c2cc(CC#N)nn12` (single isomer, unassigned) [Compound A53b]: the results for the pIC50 against DGKζ and at DGKα were 6.26 and 6.02, respectively.
